In patent US10300069B2, “Carbon monoxide-releasing molecules for therapeutic applications and methods of making and using thereof” (Georgia State University Research Foundation, Inc., priority 2014, dated 2019):

How the values were obtained:
[1] = MTT cytotoxicity test of mannose-modified reactants (FIG. 4)
Procedure: The cytotoxicity test, MTT assay, was performed to define the concentration using TPCPD-M (57, 1 mM) and BCN-M (61, 1 mM) (FIG. 4).

TNF-α = assay: LPS-induced accumulation of TNF-α by ELISA in RAW 264.7 culture supernatant; format: cell-based, mouse; details: tested separately (control)
Procedure: RAW264.7 cell were seeded in 6-well plates and incubated overnight. Cells were then stimulated with LPS (10 mg/mL) for 1 h. TPCPD (1) and BCN (6a) (different concentrations) were added to well after 1 hr LPS treatment (same for all wells). As a control, the product (31) was used at same concentration as the anti-inflammation test to confirm that the suppression of TNF-α is result of CO instead of the reagent (or product) themselves (compounds 1, 6a, and 31). TNF-α secretion in the medium was measured with an eBioscience kit (mouse TNF-α ELISA kit, eBioscience, San Diego, Calif., USA).
TNF-α is a major pro-inflammatory cytokine, mainly secreted from macrophages and dendritic cells. Its production is induced in vitro by stimulation with LPS. The accumulation of TNF-α was assessed by ELISA in the culture supernatant of the macrophage cell line, RAW 264.7 (FIG. 5). The cells were stimulated for 1 h and then co-treated by […] for 24 h. […] A 50% decrease of the LPS-induced accumulation of TNF-α was observed after co-treatment with TPCPD-M and BCN-M at the respective concentration of 1 mM+1 mM.
As a control, the effect of the TPCPD-M and BCN-M were tested separately (FIG. 5).

[2] = Water solubility of mannose-modified reactants; format: physicochemical
[3] = Completion time of reaction of TPCPD with cyclooctynes at 50 mM; format: physicochemical; details: 50 mM concentration
[4] = Intramolecular DARinv (CO release) in DMSO/PBS (7.4) at 37° C.; format: physicochemical
Excerpt: (§1) Then the reaction mixture was extracted with ethyl acetate, and the obtained organic layer was dried with anhydrous Na2SO4, filtered and concentrated.
Then the reaction mixture was extracted with ethyl acetate, and the obtained organic layer was dried with anhydrous Na2SO4.
as §1

RAW cells = assay: WST-1 cytotoxicity test on RAW cells; format: cell-based, mouse
Procedure: In order to assess the cytotoxic effect of the reactants, 1 and 6a, as well as product 31, on RAW cells, the cytotoxicity test WST-1 was performed to examine induction by TPCPD (1) and BCN (6a) over varying concentrations and periods of time (FIGS. 3A-3C).
Different concentrations of each molecule were assessed: from 0.78 to 100 μM for 1 and 31 and 7.8 to 1000 μM for 6a. Different time points were assessed (1 h, 4 h, 8 h and 24 h). Triton 0.1% was used as a positive control of cytotoxicity and the subsequent value was established as 100% of cytotoxicity.

[5] = 8 h, within the concentration range studied

O=C(NCCOCCOCCOC1OC(CO)C(O)C(O)C1O)OCC1[C@H]2CCC#CCC[C@@H]12 (stereo partly drawn) [compound 61]
cytotoxicity (MTT) ([1]; 24 h of treatment, within 1 mM concentration): none of the compounds led to any cytotoxicity
inhibition of the LPS-induced accumulation of TNF-α (TNF-α): do not lead to any inhibition
water solubility [2]: water soluble

NCC(=O)O.[C-]#[O+].[C-]#[O+].[C-]#[O+].[Cl][Ru] [CORM3, reference compound]
decrease in cell viability ([1]; 1 mM concentration): 30%

fluorocyclooctyne [fluorocycolooctyne]
time after which the reaction with TPCPD had not reached completion [3]: > 24 h

C#CCOc1ccccc1C1=C2C(=C(C(=O)N3CCOCC3)C1=O)c1cccc3cccc2c13 [compound 51]
incubation time after which the intramolecular DARinv reaction was finished [4]: 16 h

OCC1[C@H]2CCC#CCC[C@@H]12 (stereo partly drawn) [BCN]
time in which the reaction with TPCPD finished [3]: ≤ 5 min
cytotoxicity (RAW cells; [5]): Neither 6a (FIG. 3B) and nor the product (FIG. 3C) displayed any sign of cytotoxicity
cytotoxicity (RAW cells; 24 h, 1 mM): 60%

O=C1C(c2ccccc2)=C(c2ccccc2)C(c2ccccc2)=C1c1ccccc1 [TPCPD]
toxicity (cytotoxicity, Triton 0.1% = 100%) (RAW cells; 8 h, 50 μM): 44%
toxicity (cytotoxicity, Triton 0.1% = 100%) (RAW cells; 8 h, 100 μM): 49%
cytotoxicity (RAW cells; 24 h, concentrations higher than 12.5 μM): more than 50%

OC[C@@H]1[C@H]2CCc3c(c(-c4ccccc4)c(-c4ccccc4)c(-c4ccccc4)c3-c3ccccc3)CC[C@@H]12 [compound 31]
cytotoxicity (RAW cells; [5]): Neither 6a (FIG. 3B) and nor the product (FIG. 3C) displayed any sign of cytotoxicity
cytotoxicity (RAW cells; 24 h, within the concentration range tested): not cytotoxic

C1#CCCCCCC1 [cyclooctyne]
time in which the reaction with TPCPD finished [3]: 15 min
